From PubChem BioAssay AID602167 (The Scripps Research Institute Molecular Screening Center, 2012) come the findings set out here.

Each structure is given as a SMILES string. pIC50: −log10 of the molar value. Calls of active or inactive are those of the source. No rule for the calls is given here.

The test deals with transactivating tegument protein VP16 (Human herpesvirus 1), as a GAL4-VP16 activation-domain luciferase reporter. In words: GAL4-VP16 reporter repression curves – cell-based, luminescence, high throughput, SRC3 series, counter-screen for SRC3 inhibitor project, dose response (AID 602167). Conditions: VP16 transactivation luciferase reporter cells. Background: The purpose of a counterscreen is to sort out artefacts and off-target activity.
For `Nc1nc(=S)c2ncn([C@@H]3O[C@H](CO)[C@@H](O)[C@H]3O)c2[nH]1`, the pIC50 was 5.47.
On to `CCOC(=O)C(=CNc1ccc(NC2=NCC(C)S2)cc1)C(=O)OCC` (configuration not stated), for which the IC50 result is “inactive”.
As for `COC(CN(C(=O)CCl)C(C(=O)NC1CCCCC1)c1ccccc1C)OC` (configuration not stated), the pIC50 is 5.14.
Take `Cc1ccc(N(CCC#N)C(=O)CCl)cc1C`: the IC50 was > 12 µM (inactive).
As for `CCN(C(C)=O)c1cnc(C=NNC(N)=S)c2ccccc12`, the pIC50 was 5.36.
Take `O=C(CCl)N(c1ccccc1)C1CCS(=O)(=O)C1` (configuration not stated): the IC50 entry was “inactive”.
In the case of `Cc1cc(-c2nnc(SCC(=O)Nc3ccccc3C(F)(F)F)o2)c(C)n1-c1ccccc1`, the IC50 is > 35.9 µM (inactive).
Still for that read-out and setting: next, `Cc1nc([N+](=O)[O-])c(Sc2nc3ccccc3n2C)n1Cc1ccccc1`: “inactive”; `O=C(CCl)Nc1cccc(-c2cnc3ccccc3n2)c1`: “inactive”.
Consider `O=C(c1ccncc1)N(Cc1cc2ccccc2[nH]c1=O)C1CCCCC1`, for which the pIC50 is 5.10.
As for `Cc1ccc(C2=NN(C(=O)CCl)C(c3cccs3)C2)o1` (configuration not stated), the IC50 entry is “inactive”.
Same read-out and setting: for `Cc1cc(C(=O)CN2C(=O)c3ccccc3S2(=O)=O)c(C)n1C(C)C` the value was “inactive”.
On the same count and under the same terms, for `O=S(=O)(c1ccc(F)cc1)c1snnc1-c1ccccc1` the value was “inactive”.
For `Cc1ccc2occ(/C=N/NC(=O)c3ccccc3Br)c(=O)c2c1`, the pIC50 is 5.03.
Same read-out and setting: for `Cc1ncc(CO)c(/C=N/NC(=O)c2cc3c(s2)CCCC3)c1O` the value was 5.22.
In the case of `COc1cc2[nH]c3c(Cl)ncnc3c2cc1OC`, the IC50 result was “inactive”.
The same measure, in the same setting: for `Oc1ccc(C=NNc2ccccn2)c(O)c1` the value was “inactive”.
In the case of `Cc1nc2c(-c3ccc(Cl)cc3)cnn2c(N)c1-c1ccc(F)cc1`, the pIC50 is 5.92.
With `Fc1ccccc1-c1csc(=Nc2cccnc2)n1CCCn1ccnc1`, the pIC50 was 5.13.
The same measure, in the same setting: for `COc1ccccc1C(=O)N(CCC1CCCN1C)c1nc2ccccc2s1` (configuration not stated) the value was 5.10.
`CN(Cc1cnc2nc(N)nc(N)c2n1)c1ccc(C(=O)N[C@@H](CCC(=O)O)C(=O)O)cc1`: the IC50 was > 35.9 µM (inactive).
For the compound `CCOc1ccc(Nc2cc(C)nc(-n3nc(C)cc3C)n2)cc1`, the IC50 result is “inactive”.
In the case of `C=CCOc1ccc(/C=C2\SC(=S)N(CCC(=O)O)C2=O)cc1`, the IC50 was > 35.9 µM (inactive).
`O=C(Nc1nc2cc3c(cc2s1)OCCO3)C1=COCCO1`: the pIC50 was 5.11.
On the same count and under the same terms, next, `CCOc1ccc(CC(=O)Nc2ccc(NC(=O)c3ccco3)cc2)cc1OCC`: 5.11.
Regarding `Cc1ccc(NC(=O)c2cc(C)n(-c3ccccc3)c2C)cc1`, the pIC50 is 6.65.
With `O=c1[nH]c2ccccc2n1C1CCN(C(c2ccccc2)c2nnnn2-c2ccc3c(c2)OCCO3)CC1` (configuration not stated), the IC50 result is “inactive”.
With `CN[C@H]1CCc2cc(OC)c(OC)c(OC)c2-c2ccc(OC)c(=O)cc21`, the IC50 is > 35.9 µM (inactive).
Regarding `COc1cccc(/C=N/Nc2cc(-n3nc(C)cc3-c3ccccc3)ncn2)c1O`, the pIC50 was 5.19.
Take `O=C(Nc1ccc(OCC(=O)N2CCOCC2)cc1)c1cncc(Br)c1`: the IC50 result is “inactive”.
Same read-out and setting: for `Cc1nc(N2CCC(C(N)=O)CC2)c2c(-c3cccs3)csc2n1` the value was “inactive”; for `COc1cc(/C=N/NC(N)=S)cc(Br)c1OCc1ccccc1F`, > 12 µM (inactive); for `CCOc1ccc(/C=C2\SC(=S)N(CCC(=O)O)C2=O)cc1`, > 35.9 µM (inactive).
As to `O=C(NC1CCCCC1)C(c1cccnc1)N(C(=O)CCl)c1cccc(Cl)c1` (configuration not stated), the pIC50 was 5.22.
Turning to `COc1ccc(C(C(=O)NC2CCCCC2)N(C(=O)CCl)c2ccc(Cl)cc2)cc1` (configuration not stated), the pIC50 was 5.28.
On the same count and under the same terms, for `CNc1ncnc(Sc2nc(N)nc3nc[nH]c23)c1[N+](=O)[O-]` the value was 5.31; for `COc1cccc(F)c1C(C[N+](=O)[O-])c1c(N)n(C)c(=O)n(C)c1=O` (configuration not stated), 5.30.
Regarding `COc1ccc(C)cc1NS(=O)(=O)c1ccc(NC(=O)CN(c2cc([N+](=O)[O-])ccc2C)S(C)(=O)=O)cc1`, the IC50 entry is “inactive”.
In the case of `Cc1nnc(SC(=O)N2c3ccccc3Sc3ccccc32)s1`, the pIC50 is 5.12.
`O=C(N/N=C(\c1ccccc1)c1ccccn1)c1ccccc1Cl`: the pIC50 was 5.07.
With `NC(=O)c1sc2nc3c(c(-c4ccco4)c2c1N)CCC3`, the pIC50 was 5.51.
For the compound `Cc1c(/C(O)=C2/C(=O)C(=O)N(Cc3cccnc3)C2c2ccccn2)cnn1-c1ccccc1` (configuration not stated), the IC50 was > 35.9 µM (inactive).
For `C=C1C(=O)[C@]23C[C@H]1CCC2[C@@]1(C)C(C[C@@H]3O)[C@](C)(C(=O)OC)CC[C@@H]1O` (some centres not stated), the pIC50 is 5.28.
Regarding `Cc1cc(/C=C2\Cc3ccccc3C2=O)c(C)n1-c1ccccc1`, the IC50 entry is “inactive”.
Take `Cc1ccc(N=c2c([N+](=O)[O-])nn(-c3ccc4c(c3)OCCO4)n2O)cc1F`: the IC50 entry is “inactive”.
Same read-out and setting: next, `Brc1ccc2ncc3ccccc3c2c1`: “inactive”; `O=C(Nc1ccccc1Oc1ccccc1)c1cc([N+](=O)[O-])ccc1Cl`: “inactive”; `CC(=O)NC(c1cc(Cl)c2cccnc2c1O)C(C)C` (configuration not stated): “inactive”.
Same read-out and setting: next, `COc1ccc(OC)c(Cc2cnc3nc(N)nc(N)c3c2C)c1`: > 35.9 µM (inactive); `O=C(NC(NC(=S)N1CCOCC1)C(Cl)(Cl)Cl)c1ccc(Cl)cc1` (configuration not stated): > 35.9 µM (inactive).
`CCCC(=O)NC(c1ccc(Cl)cc1)c1ccc2cccnc2c1O` (configuration not stated): the pIC50 is 5.36.
On to `COCCNC(=O)c1cc(-c2ccccn2)nc2ccc(S(=O)(=O)N3CCC(C)CC3)cc12`, for which the IC50 was > 35.9 µM (inactive).
Take `C=CCOn1c(C)c(C(C)=O)c2c3nonc3ccc21`: the pIC50 was 5.14.
As for `COc1ccc2[nH]c(=O)c(CN(CCN3CCCC3)C(=O)Nc3ccccc3Cl)cc2c1`, the IC50 result is “inactive”.
`Cc1ccc2occ(/C=N/NC(=O)[C@@H](N)Cc3ccccc3)c(=O)c2c1`: the pIC50 was 5.01.
With `O=C(N/N=C\c1ccc([N+](=O)[O-])o1)C1COc2ccccc2O1` (configuration not stated), the IC50 result is “inactive”.
For `COC(=O)c1cc(S(=O)(=O)NCCc2ccc(Cl)cc2)c[nH]1`, the IC50 result is “inactive”.
On the same count and under the same terms, for `CC(=O)c1cccc(NC(=O)Nc2ccc3c(c2)N(C)C(=O)CS3)c1` the value was “inactive”.
For `S=C(Nc1ccccc1)Nc1ccc(OCc2ccc(Cl)cc2Cl)cc1`, the pIC50 is 5.10.
Take `COc1cc2c(ccc3cc(OC)c(OC)c(O)c32)cc1O`: the IC50 entry is “inactive”.
As to `COc1ccc(/C=C2\CN(Cc3ccccc3)C/C(=C\c3ccc(OC)c(O)c3)C2=O)cc1O`, the IC50 entry was “inactive”.
As for `CC(C)(C)C(=O)Nc1ccc(N=Nc2ccccc2)cc1`, the IC50 was > 35.9 µM (inactive).
Consider `CN1CCN(c2ccc(NC(=O)N3CCc4ccccc43)cc2)CC1`, for which the IC50 result is “inactive”.
With `c1ccc(-c2noc(-c3ccc4ccccc4c3)n2)nc1`, the pIC50 was 5.22.
For `O=C(NCc1ccccc1)c1c(Cl)nc(Cl)c(Cl)c1Cl`, the IC50 entry was “inactive”.
As for `O=C(NCCCn1ccnc1)c1ccc(N2CCCCCC2)c([N+](=O)[O-])c1`, the IC50 entry is “inactive”.
On the same count and under the same terms, for `Cc1ccc(OCC(=O)c2cc(C)n(-c3ccccc3)c2C)c([N+](=O)[O-])n1` the value was “inactive”.
The same measure, in the same setting: next, `CCc1ccc(/C=C2\SC(=S)N(CCCC(=O)NCCCN3CCOCC3)C2=O)cc1`: “inactive”; `CN(C)/C=C/C(=O)c1ccc2noc(-c3ccccc3)c2c1`: “inactive”.
Take `O=[N+]([O-])c1nn(-c2ccc3c(c2)OCCO3)n(O)c1=Nc1ccccc1`: the negative-log IC50 (pIC50) is 5.04.
In the case of `CC(C)(C)c1ccc(Oc2ccc(N)cn2)cc1`, the IC50 entry is “inactive”.
Consider `Cc1ccc(/C=C2\SC(=S)N(CCCC(=O)NC3CCCC3)C2=O)cc1`, for which the pIC50 is 5.34.
In the case of `CCOc1ccccc1-n1c(SCC(=O)Nc2ccccc2C(=O)O)nc2ccccc2c1=O`, the IC50 result was “inactive”.
Same read-out and setting: next, `Cc1cccc(C)c1NS(=O)(=O)c1ccc(-c2cnc(C3CC3)o2)cc1`: > 12 µM (inactive).
Consider `COc1cc(/C=C2\CC(C(C)(C)C)C/C(=C\c3cc(OC)c(OC)c(OC)c3)C2=O)cc(OC)c1OC` (configuration not stated), for which the pIC50 is 5.35.
As to `COc1cc([C@@H]2c3cc4c(cc3[C@@H](O[C@@H]3O[C@@H]5CO[C@@H](C)O[C@H]5[C@H](O)[C@H]3O)[C@H]3COC(=O)[C@H]23)OCO4)cc(OC)c1O`, the IC50 is > 35.9 µM (inactive).
For `CO[C@@]12[C@@H]3N[C@@H]3CN1C1=C(C(=O)C(N)=C(C)C1=O)[C@@H]2COC(N)=O`, the IC50 was > 35.8 µM (inactive).
Still for that read-out and setting: next, `O=c1[nH]c2ccccc2n1C1CCN(C(c2ccccc2)c2nnnn2Cc2ccccc2)CC1` (configuration not stated): “inactive”.
In the case of `NC(=O)c1cc(Sc2ccccc2)nc2ccccc12`, the IC50 result is “inactive”.
Regarding `CC(C)(C)n1ncc2c(=O)n(CC(=O)OCc3ccccc3)cnc21`, the IC50 result is “inactive”.
Consider `COc1ccc(OC)c(N/C=C/C(=O)c2ccccc2)c1`, for which the IC50 result was “inactive”.
Still for that read-out and setting: for `CN1C(=O)C2(C(C#N)=C(N)N(c3cc(Cl)cc(Cl)c3)C3=C2C(=O)CCC3)c2ccccc21` (configuration not stated) the value was “inactive”; for `C/C(=N\NC(=S)Nc1cc(S(=O)(=O)N2CCOCC2)ccc1Cl)c1ccccc1F`, “inactive”.
As to `CCn1c2ccccc2c2cnc(N=CN(C)C)c(C#N)c21`, the IC50 entry is “inactive”.
On the same count and under the same terms, for `Cc1cccc(NC(=O)c2cc(Cl)ccc2[N+](=O)[O-])c1` the value was “inactive”.
In the case of `Cc1ccc(-n2c(Cl)c(Cl)nc(Cl)c2=O)cc1`, the negative-log IC50 (pIC50) was 5.39.
The same measure, in the same setting: for `CCC(=O)c1ccc(O)c(CC=C(C)C)c1` the value was 5.01; for `O=C(OCc1ccccc1)c1ccc(NCc2cc(O)ccc2O)cc1`, 5.23.
Still for that read-out and setting: next, `O=C(OCCC12CC3CC(CC(C3)C1)C2)c1ccc(NCc2cc(O)ccc2O)cc1`: 5.26; `Clc1ccc(-c2csc3ncnc(NCCN4CCOCC4)c23)cc1`: 5.10; `CC(=O)OCCN1c2ccccc2Sc2cnccc21`: 5.20.
With `Cc1nc(N)nc(N)c1-c1ccc(Cl)c(Cl)c1`, the IC50 was > 11.9 µM (inactive).

By pIC50 is commonly meant the negative decadic logarithm of the IC50, by convention in mol/L. A word on the IC50: it is the concentration needed to halve the response being measured.
